One series concerns rats. As to conditions: in rats; cited from earlier work.
Another series concerns HT-29 cells. Format: cell-based.
Another series concerns mice. As to conditions: in mice, intravenously; cited from earlier work.

Bounds are passed on as bounds.

Protocol for HT-29 cells: The IC50 was calculated as being the concentration of SN38-LNCs, of SN38 or unloaded LNCs causing 50% cell death.

Turning to `CCOCCOCCO` [Transcutol®HP, diethyleneglycol monoethyl ether], the DL50 in the series on rats is recorded as greater than 5 g/kg.

Take `CCc1c2c(nc3ccc(O)cc13)-c1cc3c(c(=O)n1C2)COC(=O)[C@]3(O)CC` [free SN38, 7-ethyl-10-hydroxycamptothecin]: in the series with HT-29 cells, the “Cytotoxicity relative to CPT11 (times greater)” value is recorded as “approximately 250 times”. For the molecule “polyethyleneglycol-660 2-hydroxystearate [Solutol® HS 15]”, the DL50 in the series on mice is on record as greater than 3.16 g/kg.

The values above are taken from patent US20120308663A1, “LIPID NANOCAPSULES, METHOD FOR PREPARING SAME AND USE THEREOF AS A DRUG” (priority 2009, published 2012).
